Test results as given in patent US7387796B2, “Stable compositions of S-adenosyl-l-methionine with dextran” (priority 2002, dated 2008).

How the values were obtained:
[1] = oral administration, intrahepatic cholestasis; cited from earlier work
[2] = patients with Alzheimer's disease, preliminary study; cited from earlier work
[3] = oral administration, short term trial; cited from earlier work
[4] = 10 ng/ml injected; sample left at room temperature in the light for 12 months, no special protection
[5] = in vivo; cited from earlier work
[6] = oral administration, patients with and without liver disease; cited from earlier work
[7] = oral, alcoholic liver cirrhosis, compared with placebo treated group; cited from earlier work

## C[S+](CC[C@H](N)C(=O)[O-])C[C@H]1O[C@@H](n2cnc3c(N)ncnc32)[C@H](O)[C@@H]1O (some centres unmarked) [SAM-e, S-adenosyl-1-methionine]
[1]
  pruritus and biochemical markers of cholestasis: improvements in both the pruritus as well as the biochemical markers of cholestasis
[2]
  cognitive effect: cognitive improvement
[3]
  clinical effect in primary fibromyalgia: significant improvement
[4]
  Area of HPLC peak: 189251
  conc.: 10 ng/mL
[5]
  toxicity in clinical use: absence of toxicity
[6]
  liver glutathione levels: increases in liver glutathione levels
[7]
  overall mortality and/or progression to liver transplant: 12%
